Earlier results in US20040202731A1, “Rosmarinic acid composition” (priority 2003, published 2004).

Assays:
rat liver microsomes = details: concentration of 25 μg/ml
human PMNL = details: concentrations of 10^-5 to 10^-3 M
[1] = in vivo

Compound | inhibition of lipid peroxidation of rat liver microsomes (rat liver microsomes) [%] | formation of 5-HETE from human PMNL (human PMNL) | formation of LTB4 from human PMNL (human PMNL) | endotoxin-induced activation of complement and concomitant formation of prostacyclin (complement) | absorption from the gastrointestinal tract and from the skin [1] | stability (turns to camphor with oxidation)
O=C(/C=C/c1ccc(O)c(O)c1)O[C@H](Cc1ccc(O)c(O)c1)C(=O)O [Rosmarinic acid] | 90 | inhibited | inhibited | suppresses | well absorbed | –
CC1(C)C2CCC1(C)C(O)C2 (stereo not drawn) [Borneol, endo-1,7,7-trimethyl-bicyclo[2.2.1]heptan-2-ol] | – | – | – | – | – | highly unstable
